± gives the standard deviation of the averaged measurements.
Test system: HepaRG
Experiment: LDH release cytotoxicity, % of total lysis control; higher = more cytotoxic
Details: 48 h
Outline: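 HepaRG cells from a single lot were plated on collagen I-coated 96-well plates and treated in duplicate for 48 h with eight-point half-log series of test chemicals, starting at 100 µM, in serum-free induction medium containing 0.5% DMSO. Total lysis wells were given 0.1% Triton X. LDH released into 50 µL of spent medium was measured as resorufin fluorescence with CytoTox-ONE on a Tecan Safire. Percent cytotoxicity was normalized to on-plate vehicle and total lysis controls and then averaged across duplicates.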

Row | SMILES | LDH release cytotoxicity (0.031623 µM) | LDH release cytotoxicity (0.1 µM) | LDH release cytotoxicity (0.316228 µM) | LDH release cytotoxicity (1 µM) | LDH release cytotoxicity (3.16228 µM) | LDH release cytotoxicity (10 µM) | LDH release cytotoxicity (31.6228 µM) | LDH release cytotoxicity (100 µM) | LDH release cytotoxicity (0.03162 µM) | LDH release cytotoxicity (0.3162278 µM) | LDH release cytotoxicity (0.0302 µM) | LDH release cytotoxicity (0.0955 µM) | LDH release cytotoxicity (0.301998 µM) | LDH release cytotoxicity (0.955 µM) | LDH release cytotoxicity (3.01998 µM) | LDH release cytotoxicity (9.55 µM) | LDH release cytotoxicity (30.1998 µM) | LDH release cytotoxicity (95.5 µM)
1 | CCCCC=O [Pentanal] | 0.98 ± 0.79% | -1.98 ± 0.44% | -0.995 ± 0.23% | -1.67 ± 0.41% | -1.94 ± 0.15% | -1.12 ± 0.47% | -1.6 ± 0.26% | 0.803 ± 0.68% | – | – | – | – | – | – | – | – | – | –
2 | O=C(OCCCCCOC(=O)c1ccccc1)c1ccccc1 [Pentane-1,5-diyl dibenzoate] | – | -0.929 ± 0.18% | – | -1.19 ± 0.099% | -0.893 ± 0.47% | -0.935 ± 0.24% | -0.87 ± 0.083% | -0.0778 ± 0.93% | -0.742 ± 0.19% | -1.73 ± 0.77% | – | – | – | – | – | – | – | –
3 | CCCCCOC(C)=O [Pentyl acetate] | – | -10.5 ± 0.81% | – | -11 ± 1.1% | -10.3 ± 0.5% | -10.9 ± 1.1% | -10.3 ± 0.19% | -10.02 ± 0.093% | -10.9 ± 0.81% | -10.2 ± 1.1% | – | – | – | – | – | – | – | –
4 | O=C(O)C(F)(F)C(F)(F)C(F)(F)C(F)(F)C(F)(F)C(F)(F)C(F)(F)C(F)(F)C(F)(F)F [Perfluorodecanoic acid] | 2.61 ± 0.091% | -0.365 ± 0.079% | -0.683 ± 1.6% | -0.768 ± 0.65% | -7.62 ± 0.32% | 7.64 ± 0.07% | 8.49 ± 0.18% | 44.4 ± 6.8% | – | – | – | – | – | – | – | – | – | –
5 | O=C(O)C(F)(F)C(F)(F)C(F)(F)C(F)(F)C(F)(F)C(F)(F)F [Perfluoroheptanoic acid] | – | -2.63 ± 0.69% | – | -3.63 ± 0.086% | -2.82 ± 0.55% | -2.95 ± 0.085% | -2.44 ± 0.19% | -2.23 ± 0.48% | -2.26 ± 1% | -3.62 ± 0.96% | – | – | – | – | – | – | – | –
6 | O=C(O)C(F)(F)C(F)(F)C(F)(F)C(F)(F)C(F)(F)F [Perfluorohexanoic acid] | – | -0.436 ± 0.56% | – | -1.3 ± 0.12% | -1.58 ± 0.4% | -0.342 ± 0.24% | -0.769 ± 0.29% | 0.349 ± 0.23% | -0.915 ± 0.22% | -1.48 ± 0.11% | – | – | – | – | – | – | – | –
7 | O=C(O)C(F)(F)C(F)(F)C(F)(F)C(F)(F)C(F)(F)C(F)(F)C(F)(F)C(F)(F)F [Perfluorononanoic acid] | – | -1.58 ± 0.88% | – | -2.4 ± 0.24% | -1.4 ± 0.082% | -1.71 ± 0.11% | -1.31 ± 0.22% | 27.5 ± 4.5% | -0.689 ± 0.78% | -1.12 ± 0.43% | – | – | – | – | – | – | – | –
8 | NS(=O)(=O)C(F)(F)C(F)(F)C(F)(F)C(F)(F)C(F)(F)C(F)(F)C(F)(F)C(F)(F)F [Perfluorooctanesulfonamide] | – | -2.06 ± 0.39% | – | -1.57 ± 1.4% | -1.2 ± 0.054% | -4.2 ± 0.27% | 41.1 ± 1.1% | 86.8 ± 13% | -1.99 ± 0.3% | -2.69 ± 0.94% | – | – | – | – | – | – | – | –
9 | O=S(=O)(O)C(F)(F)C(F)(F)C(F)(F)C(F)(F)C(F)(F)C(F)(F)C(F)(F)C(F)(F)F [Perfluorooctanesulfonic acid] | – | -1.86 ± 0.5% | – | -1.91 ± 0.49% | -1.26 ± 0.23% | -2 ± 0.026% | -0.893 ± 0.12% | 19.6 ± 3.8% | -1.36 ± 0.32% | -1.14 ± 0.19% | – | – | – | – | – | – | – | –
10 | O=C(O)C(F)(F)C(F)(F)C(F)(F)C(F)(F)C(F)(F)C(F)(F)C(F)(F)F [Perfluorooctanoic acid] | – | -1.32 ± 0.54% | – | -1.76 ± 0.67% | -0.724 ± 0.56% | -1.14 ± 0.49% | -1.29 ± 0.37% | 1.94 ± 1% | -0.867 ± 0.091% | -1.53 ± 0.41% | – | – | – | – | – | – | – | –
11 | O=C(O)C(F)(F)C(F)(F)C(F)(F)C(F)(F)C(F)(F)C(F)(F)C(F)(F)C(F)(F)C(F)(F)C(F)(F)F [Perfluoroundecanoic acid] | – | – | – | – | – | – | – | – | – | – | -0.896 ± 0.4% | -2.14 ± 0.16% | -0.462 ± 0.4% | -1.31 ± 0.4% | -1.93 ± 0.38% | -1.78 ± 2% | -0.387 ± 0.52% | 1.42 ± 0.46%
12 | CC1(C)C(C=C(Cl)Cl)C1C(=O)OCc1cccc(Oc2ccccc2)c1 (configuration not stated) [Permethrin] | – | -0.859 ± 2% | – | -1.15 ± 0.33% | -1.16 ± 0.27% | -1.02 ± 1% | -1.28 ± 0.3% | -0.44 ± 0.19% | -0.121 ± 0.81% | -0.0615 ± 0.15% | – | – | – | – | – | – | – | –
13 | c1ccc2c(c1)ccc1ccccc12 [Phenanthrene] | – | -0.112 ± 0.47% | – | -1.03 ± 0.62% | -1.55 ± 0.095% | -0.467 ± 0.087% | -0.00782 ± 0.7% | 0.23 ± 0.29% | -0.492 ± 0.39% | -1.07 ± 0.35% | – | – | – | – | – | – | – | –
14 | CCC1(c2ccccc2)C(=O)N=C(O)NC1=O (configuration not stated) [Phenobarbital sodium] | – | -0.9 ± 0.78% | – | -0.43 ± 0.71% | -0.289 ± 0.44% | -0.0423 ± 0.88% | 0.694 ± 0.48% | 1.83 ± 0.84% | -1.03 ± 0.11% | -1.41 ± 0.58% | – | – | – | – | – | – | – | –
15 | Oc1ccccc1 [Phenol] | – | -1.84 ± 0.82% | – | -1.85 ± 0.26% | -1.67 ± 0.035% | -1.64 ± 0.055% | -1.18 ± 0.073% | 0.202 ± 0.087% | -1.29 ± 0.31% | -1.69 ± 0.2% | – | – | – | – | – | – | – | –
16 | O=C1OC(c2ccc(O)cc2)(c2ccc(O)cc2)c2ccccc21 [Phenolphthalein] | – | -1.59 ± 0.42% | – | -1.68 ± 1% | -0.391 ± 0.89% | 0.41 ± 0.52% | 0.57 ± 0.34% | 10.5 ± 2% | -0.731 ± 0.29% | -0.412 ± 1% | – | – | – | – | – | – | – | –
17 | O=C(O)c1ccccc1C(c1ccc(O)cc1)c1ccc(O)cc1 [Phenolphthalin] | – | -1.91 ± 1.3% | – | -2.6 ± 0.41% | -1.53 ± 0.2% | -1.03 ± 0.2% | -1.15 ± 0.7% | 0.0929 ± 0.98% | -1.69 ± 0.25% | -2.15 ± 0.91% | – | – | – | – | – | – | – | –
18 | c1ccc2c(c1)Nc1ccccc1S2 [Phenothiazine] | – | -0.242 ± 0.75% | – | -2.16 ± 0.13% | -1.87 ± 0.84% | -1.1 ± 0.59% | 0.496 ± 0.65% | 3.43 ± 0.83% | -1.44 ± 0.67% | -1.08 ± 1% | – | – | – | – | – | – | – | –
19 | CC(=O)[O][Hg][c]1ccccc1 [Phenylmercuric acetate] | – | -0.0392 ± 0.1% | – | 13.6 ± 5% | 23.5 ± 4.7% | 45.48 ± 0.45% | -7.82 ± 0.28% | -8.63 ± 0.18% | -1.79 ± 0.027% | 3.3 ± 0.71% | – | – | – | – | – | – | – | –

Source: the supplement of paper PMC7840683
